Measurements taken from US6812034B2, “Fetuin-MGP-mineral complex in serum assayed to determine calcification risk” (The Regents of the University of California, priority 2000, dated 2004).

Assays:
[1] = test system: vitamin D-induced artery calcification; assay: mineral phosphate accumulation in acid demineralization extracts of thoracic aorta and carotid arteries, vitamin D plus warfarin; format: in vivo, rat
Procedure: Tissues were subsequently washed extensively with buffer and extracted with 1 ml of 10% formic acid for 24 h at room temperature, as described. Calcium levels in serum were determined colorimetrically using cresolphthalein complexone (Sigma) and phosphate levels in serum and in acid tissue extracts were determined calorimetrically as described (Zhu et al. (1994) Cardiology, 85: 370-377). Tissue sectioning and staining were carried out by Biomedical Testing Services, Inc., (San Diego, Calif.). The effect of bisphosphonates on artery calcification was first examined in rats in which artery calcification was induced by treatment with warfarin plus high doses of vitamin D. […] All animals were killed by exsanguination at 96 h. […] All animals were killed by exsanguination at 96 h after the first vitamin D dose. […] All animals were killed by exsanguination 96 h after the first vitamin D injection.

[2] = filtration of serum through a 300 kDa membrane; format: in vivo, rat
Procedure: In a typical experiment, blood was obtained from 2 control rats and from 2 rats 6 h after a dose of 8 mg etidronate/100 g, and each blood sample was immediately placed into a 2.5 ml gold top vacutainer tube (SST gel and clot activator tube, Becton Dickinson). […] The filtrate and retentate were then analyzed to determine calcium, phosphate, and volume. The typical filtrate volume recovered was 0.70 ml and the typical retentate volume recovered was 0.26 ml.

[3] = serum levels of calcium, phosphate, MGP and BGP after subcutaneous bisphosphonate; format: in vivo, rat; conditions: for Ionic calcium / total calcium: 8 mg/100 g
Procedure: Rats were fed rodent diet 5001 (Purina Mills Inc., St. […] Etidronate was dissolved with 0.15 M NaCl, titrated to pH 7.4 with dilute NaOH, and administered subcutaneously to forty-day-old male rats. Control animals received injections of 0.15 M NaCl only. […] At the times indicated in FIG. 1, each rat was anesthetized with metofane and a 400 μl sample of blood was withdrawn from the jugular vein. Blood samples were allowed to clot for 15 min at room temperature and serum was obtained after centrifugation in a clinical centrifuge and then frozen rapidly on dry ice and stored at -70° C. until later analysis. The same procedure was followed for the second time course experiment (FIG. 10), with the difference that the etidronate dose was increased to 32 mg per 100 g body weight. […] Two hours later, all rats were injected with etidronate at a dose of 8 mg/100 g (t=0), and 400 μl of blood were removed from each animal at the indicated times for biochemical analyses. […] In neither control group could we detect a significant change in serum levels of calcium, phosphate, or MGP at any time point. […] Rice et al. (1994) J. Bone Min. Res. 9: 567-576). Calcium levels in serum and other samples were determined colorimetrically using cresolphthalein complexone (Sigma) and phosphate levels in serum, effluent fractions, and other samples were determined calorimetrically as described (Chen et al. (1956) Anal. Chem. 28(11): 1756-1758). For determination of ionic calcium, freshly obtained blood samples were immediately placed into a 2.5 ml gold top vacutainer tube to avoid out gassing of CO2 and the associated shift in pH. […] Electrophoresis was carried out using 4 to 20% polyacrylamide gels (Novex, Inc., San Diego, Calif.) run in Tris-glycine buffer containing SDS. Protein sequencing was carried out on bands transferred to PVDF membranes using a Procise 494 Sequencer (ABI division, PE Biosystems, Foster City, Calif.).

[4] = test system: growth plate cartilage mineralization; assay: microradiograph of the proximal tibia; format: in vivo, rat; conditions: 4 mg to 100 g rats at t=0 and 24 h, killed at 48 h
Procedure: These rats were exsanguinated at t=48 h. Serum was obtained at each time point and stored at -20° C. until later analysis. Tibias from the rats killed at 48 h, as well as from age-matched controls, were removed, cleaned of adhering tissue, and fixed in 70% ethanol. Tibia samples were embedded in plastic and cut into sections of 500 microns by Pathology Associates International (Frederickberg, Md.). The resulting sections were microradiographed using a Hewlett-Packard Model […] Faxitron Xray machine. All animal experiments were approved by the UCSD animal subjects committee.

[5] = test system: arotinoid-induced bone resorption; conditions: relative antiresorption potency in the rat, etidronate = 1; cited from earlier work
[6] = 8 mg/100 g sc, 6 h, 0.26 ml retentate, 300 kDa membrane
[7] = 8 mg/100 g sc, 6 h, 0.7 ml filtrate, 300 kDa membrane
[8] = 8 mg/100 g sc, 6 h, 1 ml serum prior to filtration
[9] = 8 mg/100 g, 6 h serum incubated at room temperature for 1 day

**Q.** For `CC(O)(P(=O)(O)O)P(=O)(O)O` [Etidronate, (1-hydroxyethylylidene)-bisphosphonate], which “dose required to reduce the extent of mineralization by half in the thoracic aorta” value ([1]; 84 h, FIG. 3) is on record?
**A.** The value was 2 mg P/kg/day.

**Q.** What about the “dose required to reduce the extent of mineralization by half in the carotid artery” value ([1]; 84 h, FIG. 4) of the same compound?
**A.** The value was 2 mg P/kg/day.

**Q.** And the “Artery Calcification Dose for 50% inhibition” value ([1]; daily subcutaneous dose, vitamin D-induced artery calcification, male rats initially 200 g)?
**A.** Its value is 2 mg P/kg/day.

**Q.** And the “Artery Calcification Relative potency” value ([1]; relative to etidronate = 1)?
**A.** The value was 1.

**Q.** And the “Calcium, Retentate” value [2, 6]?
**A.** The value was 2.72 µmol.

**Q.** What about the “MGP, Retentate” value [2, 6] of the same compound?
**A.** The value was 11,630 ng.

**Q.** And the “Phosphate, Retentate” value [2, 6]?
**A.** Its value is 1.84 µmol.

**Q.** And the “Calcium, Filtrate” value [2, 7]?
**A.** The value was 1.18 µmol.

**Q.** What about the “MGP, Filtrate” value [2, 7] of the same compound?
**A.** The value was 291 ng.

**Q.** What about the “Phosphate, Filtrate” value [2, 7] of the same compound?
**A.** The value was 2.98 µmol.

**Q.** What about the “Calcium, Initial Serum” value [2, 8] of the same compound?
**A.** The value was 4.30 µmol.

**Q.** And the “MGP, Initial Serum” value [2, 8]?
**A.** The value was 14,800 ng.

**Q.** What about the “Phosphate, Initial Serum” value [2, 8] of the same compound?
**A.** Its value is 5.10 µmol.

**Q.** And the “filtrate MGP” value [2, 9]?
**A.** Its value is 320 ng.

**Q.** What about the filtrate calcium [2, 9] of the same compound?
**A.** Its filtrate calcium is 1.21 µmol.

**Q.** What about the filtrate phosphate [2, 9] of the same compound?
**A.** Its filtrate phosphate is 2.79 µmol.

**Q.** What about the “retentate MGP” value [2, 9] of the same compound?
**A.** The value was 12,127 ng.

**Q.** What about the retentate phosphate [2, 9] of the same compound?
**A.** Its retentate phosphate is 2.02 µmol.

**Q.** What about the retentate calcium ([2]; 8 mg/100 g, 6 h serum incubated at room temperature for 1 day, then 300 kDa filtration) of the same compound?
**A.** Its retentate calcium is 2.83 µmol.

**Q.** And the “retentate and filtrate levels of calcium, phosphate and MGP vs serum filtered immediately” value ([2]; serum frozen on dry ice and thawed 5 times)?
**A.** The value was “comparable”.

**Q.** What about the “increase in serum calcium, phosphate and MGP compared with the 8 mg/100 g dose” value ([3]; 4 mg/100 g body weight, 6 h, data not shown) of the same compound?
**A.** The value was “smaller increase”.

**Q.** What about the “elevation of serum calcium” value ([3]; 8 mg/100 g body weight sc) of the same compound?
**A.** Its value is 1.8 fold.

**Q.** And the “elevation of serum phosphate” value ([3]; 8 mg/100 g body weight sc)?
**A.** The value was 1.6 fold.

**Q.** What about the “serum MGP” value ([3]; 8 mg/100 g body weight sc) of the same compound?
**A.** The value was 12 µg/mL.

**Q.** And the serum calcium ([3]; 8 mg/100 g body weight sc)?
**A.** The serum calcium was 4.3 mM.

**Q.** What about the serum phosphate ([3]; 8 mg/100 g body weight sc) of the same compound?
**A.** The serum phosphate was 5.6 mM.

**Q.** What about the “time at which serum mineral complex reaches maximal levels” value ([3]; 8 mg/100 g sc) of the same compound?
**A.** Its value is 6 h.

**Q.** And the “time by which serum mineral complex is cleared from serum” value ([3]; 8 mg/100 g sc)?
**A.** The value was no more than 24 h.

**Q.** And the “time of peak level of MGP” value ([3]; 8 mg/100 g sc)?
**A.** The value was 6 h.

**Q.** What about the “time of peak serum BGP level” value ([3]; 8 mg/100 g sc) of the same compound?
**A.** Its value is 1 h.

**Q.** And the “time to half of maximal serum MGP levels” value ([3]; 8 mg/100 g sc)?
**A.** Its value is 3 h.

**Q.** And the “time to half of maximal serum calcium and phosphate levels” value ([3]; 8 mg/100 g sc)?
**A.** The value was 1 h.

**Q.** What about the “phosphate above control levels” value ([3]; 8 mg/100 g sc, by 6 h) of the same compound?
**A.** The value was 59%.

**Q.** And the “total calcium above control levels” value ([3]; 8 mg/100 g sc, by 6 h)?
**A.** The value was 76%.

**Q.** What about the “maximum elevation of serum BGP” value ([3]; 8 mg/100 g sc, data not shown) of the same compound?
**A.** The value was 3 fold.

**Q.** What about the Ionic calcium ([3]; 1 h) of the same compound?
**A.** Its Ionic calcium is 1.47 ± 0.04 mM.

**Q.** And the total calcium ([3]; 1 h)?
**A.** The total calcium was 3.45 ± 0.34 mM.

**Q.** What about the Ionic calcium ([3]; 2 h) of the same compound?
**A.** Its Ionic calcium is 1.51 ± 0.04 mM.

**Q.** What about the total calcium ([3]; 2 h) of the same compound?
**A.** The total calcium was 4.05 ± 0.44 mM.

**Q.** And the Ionic calcium ([3]; 6 h)?
**A.** Its Ionic calcium is 1.46 ± 0.03 mM.

**Q.** And the total calcium ([3]; 6 h)?
**A.** Its total calcium is 4.41 ± 0.43 mM.

**Q.** And the “time of maximal level in serum total calcium, phosphate and MGP” value ([3]; 32 mg/100 g sc)?
**A.** Its value is 6 to 9 h.

**Q.** And the “level of serum ionized calcium” value ([3]; 32 mg/100 g sc, 6 h)?
**A.** Its value is “no increase”.

**Q.** And the “serum levels of total calcium, phosphate and MGP” value ([3]; 32 mg/100 g sc, 24 h)?
**A.** Its value is “remained substantially elevated”.

**Q.** And the “increase in serum MGP levels” value ([3]; 32 mg/100 g, within 6 h)?
**A.** The value was 36 fold.

**Q.** And the “increase in serum phosphate levels” value ([3]; 32 mg/100 g, within 6 h)?
**A.** The value was 2.5 fold.

**Q.** And the “serum MGP” value ([3]; 32 mg/100 g, within 6 h)?
**A.** Its value is 18 µg/mL.

**Q.** And the serum phosphate ([3]; 32 mg/100 g, within 6 h)?
**A.** The serum phosphate was 8.6 mM.

**Q.** And the total serum calcium ([3]; 32 mg/100 g, within 6 h)?
**A.** The total serum calcium was 8.8 mM.

**Q.** What about the “microradiograph of the proximal tibial metaphysis” value [4] of the same compound?
**A.** Its value is “alternating bands of calcification and no calcification”.

**Q.** What about the “Bone Resorption Relative potency” value [5] of the same compound?
**A.** Its value is 1.
